Measurements taken from PubChem BioAssay (NCI).
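Growth conditions: 96-well plates. Treatment: test compound, 48 hours, 5 concentrations. Analysis: linear interpolation between bracketing concentrations; unreached endpoints set to highest concentration. TGI is the concentration that stops growth completely.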

Tests used:
Assay in all cases: growth of human tumour cells (NCI), 48 h
U251 CNS = system: U251 CNS
UACC-62 melanoma = system: UACC-62 melanoma
SF-268 CNS = system: SF-268 CNS
SK-MEL-28 melanoma = system: SK-MEL-28 melanoma
HCC-2998 colon = system: HCC-2998 colon
SNB-19 CNS = system: SNB-19 CNS
NCI-H522 lung = system: NCI-H522 lung
HOP-92 NSCLC = system: HOP-92 NSCLC
TK-10 renal = system: TK-10 renal
SNB-78 CNS = system: SNB-78 CNS
M19-MEL melanoma = system: M19-MEL melanoma
SK-MEL-5 melanoma = system: SK-MEL-5 melanoma
EKVX NSCLC = system: EKVX NSCLC
LOX IMVI melanoma = system: LOX IMVI melanoma
KM12 colon = system: KM12 colon
CCRF-CEM leukemia = system: CCRF-CEM leukemia
OVCAR-5 ovarian = system: OVCAR-5 ovarian
SW-620 colon = system: SW-620 colon
IGROV1 ovarian = system: IGROV1 ovarian
CAKI-1 renal = system: CAKI-1 renal
RPMI-8226 leukemia = system: RPMI-8226 leukemia
SK-MEL-2 melanoma = system: SK-MEL-2 melanoma
OVCAR-8 ovarian = system: OVCAR-8 ovarian
NCI-H23 lung = system: NCI-H23 lung
OVCAR-4 ovarian = system: OVCAR-4 ovarian
SF-295 CNS = system: SF-295 CNS
K-562 leukemia = system: K-562 leukemia
786-0 renal = system: 786-0 renal
ACHN renal = system: ACHN renal
A549 NSCLC = system: A549 NSCLC
LXFL 529 NSCLC = system: LXFL 529 NSCLC
HOP-18 NSCLC = system: HOP-18 NSCLC
NCI-H460 lung = system: NCI-H460 lung
DMS 114 small cell lung = system: DMS 114 small cell lung
UO-31 renal = system: UO-31 renal
COLO 205 colon = system: COLO 205 colon
SK-OV-3 ovarian = system: SK-OV-3 ovarian
HOP-62 NSCLC = system: HOP-62 NSCLC
HCT-116 colon = system: HCT-116 colon
XF 498 CNS = system: XF 498 CNS
HL-60(TB) leukemia = system: HL-60(TB) leukemia
OVCAR-3 ovarian = system: OVCAR-3 ovarian
KM20L2 colon = system: KM20L2 colon
MALME-3M melanoma = system: MALME-3M melanoma
SF-539 CNS = system: SF-539 CNS
SNB-75 CNS = system: SNB-75 CNS
HCT-15 colon = system: HCT-15 colon
UACC-257 melanoma = system: UACC-257 melanoma
MOLT-4 leukemia = system: MOLT-4 leukemia
A498 renal = system: A498 renal
RXF 393 renal = system: RXF 393 renal
SN12C renal = system: SN12C renal
M14 melanoma = system: M14 melanoma
NCI-H226 lung = system: NCI-H226 lung
DLD-1 colon = system: DLD-1 colon
DMS 273 small cell lung = system: DMS 273 small cell lung
SR leukemia = system: SR leukemia
HT29 colon = system: HT29 colon

CCN(C(C)=N)c1ccccc1
TGI (U251 CNS): > 100 µM | TGI (UACC-62 melanoma): > 100 µM | TGI (SF-268 CNS): > 100 µM | TGI (SK-MEL-28 melanoma): > 100 µM | TGI (HCC-2998 colon): > 100 µM | TGI (SNB-19 CNS): > 100 µM | TGI (NCI-H522 lung): > 100 µM | TGI (HOP-92 NSCLC): > 100 µM | TGI (TK-10 renal): > 100 µM | TGI (SNB-78 CNS): > 100 µM | TGI (M19-MEL melanoma): > 100 µM | TGI (SK-MEL-5 melanoma): > 100 µM | TGI (EKVX NSCLC): > 100 µM | TGI (LOX IMVI melanoma): > 100 µM | TGI (KM12 colon): > 100 µM | TGI (CCRF-CEM leukemia): > 100 µM | TGI (OVCAR-5 ovarian): > 100 µM | TGI (SW-620 colon): > 100 µM | TGI (IGROV1 ovarian): > 100 µM | TGI (CAKI-1 renal): > 100 µM | TGI (RPMI-8226 leukemia): > 100 µM | TGI (SK-MEL-2 melanoma): > 100 µM | TGI (OVCAR-8 ovarian): > 100 µM | TGI (NCI-H23 lung): > 100 µM | TGI (OVCAR-4 ovarian): > 100 µM | TGI (SF-295 CNS): > 100 µM | TGI (K-562 leukemia): > 100 µM | TGI (786-0 renal): > 100 µM | TGI (ACHN renal): > 100 µM | TGI (A549 NSCLC): > 100 µM | TGI (LXFL 529 NSCLC): > 100 µM | TGI (HOP-18 NSCLC): > 100 µM | TGI (NCI-H460 lung): > 100 µM | TGI (DMS 114 small cell lung): > 100 µM | TGI (UO-31 renal): > 100 µM | TGI (COLO 205 colon): > 100 µM | TGI (SK-OV-3 ovarian): > 100 µM | TGI (HOP-62 NSCLC): > 100 µM | TGI (HCT-116 colon): > 100 µM | TGI (XF 498 CNS): > 100 µM | TGI (HL-60(TB) leukemia): > 100 µM | TGI (OVCAR-3 ovarian): > 100 µM | TGI (KM20L2 colon): > 100 µM | TGI (MALME-3M melanoma): > 100 µM | TGI (SF-539 CNS): > 100 µM | TGI (SNB-75 CNS): > 100 µM | TGI (HCT-15 colon): > 100 µM | TGI (UACC-257 melanoma): 44.3 µM | TGI (MOLT-4 leukemia): > 100 µM | TGI (A498 renal): > 100 µM | TGI (RXF 393 renal): > 100 µM | TGI (SN12C renal): > 100 µM | TGI (M14 melanoma): > 100 µM | TGI (NCI-H226 lung): > 100 µM | TGI (DLD-1 colon): > 100 µM

C[N+](C)(C)CC1CCCC(C[N+](C)(C)C)C1=NO (stereo not drawn)
TGI (U251 CNS): > 100 µM | TGI (UACC-62 melanoma): > 100 µM | TGI (SK-MEL-28 melanoma): > 100 µM | TGI (SNB-19 CNS): > 100 µM | TGI (TK-10 renal): > 100 µM | TGI (SNB-78 CNS): > 100 µM | TGI (M19-MEL melanoma): > 100 µM | TGI (SK-MEL-5 melanoma): > 100 µM | TGI (EKVX NSCLC): > 100 µM | TGI (KM12 colon): > 100 µM | TGI (OVCAR-5 ovarian): > 100 µM | TGI (SW-620 colon): > 100 µM | TGI (IGROV1 ovarian): > 100 µM | TGI (CAKI-1 renal): > 100 µM | TGI (DMS 273 small cell lung): > 100 µM | TGI (RPMI-8226 leukemia): > 100 µM | TGI (SK-MEL-2 melanoma): > 100 µM | TGI (OVCAR-8 ovarian): > 100 µM | TGI (NCI-H23 lung): > 100 µM | TGI (OVCAR-4 ovarian): > 100 µM | TGI (SF-295 CNS): > 100 µM | TGI (K-562 leukemia): > 100 µM | TGI (786-0 renal): > 100 µM | TGI (ACHN renal): > 100 µM | TGI (A549 NSCLC): > 100 µM | TGI (LXFL 529 NSCLC): > 100 µM | TGI (HOP-18 NSCLC): > 100 µM | TGI (NCI-H460 lung): > 100 µM | TGI (UO-31 renal): > 100 µM | TGI (COLO 205 colon): > 100 µM | TGI (SK-OV-3 ovarian): > 100 µM | TGI (HCT-116 colon): > 100 µM | TGI (XF 498 CNS): > 100 µM | TGI (OVCAR-3 ovarian): > 100 µM | TGI (SR leukemia): > 100 µM | TGI (KM20L2 colon): > 100 µM | TGI (MALME-3M melanoma): > 100 µM | TGI (SF-539 CNS): > 100 µM | TGI (SNB-75 CNS): > 100 µM | TGI (HCT-15 colon): > 100 µM | TGI (UACC-257 melanoma): > 100 µM | TGI (MOLT-4 leukemia): > 100 µM | TGI (RXF 393 renal): > 100 µM | TGI (SN12C renal): > 100 µM | TGI (M14 melanoma): > 100 µM | TGI (NCI-H226 lung): > 100 µM | TGI (HT29 colon): > 100 µM | TGI (DLD-1 colon): > 100 µM

O=C1c2ccccc2C(=O)c2[nH]c(Cc3ccccc3F)nc21
TGI (U251 CNS): > 100 µM | TGI (UACC-62 melanoma): > 100 µM | TGI (SF-268 CNS): > 100 µM | TGI (SK-MEL-28 melanoma): > 100 µM | TGI (HCC-2998 colon): > 100 µM | TGI (SNB-19 CNS): > 100 µM | TGI (NCI-H522 lung): 70.9 µM | TGI (HOP-92 NSCLC): > 100 µM | TGI (TK-10 renal): 88.3 µM | TGI (EKVX NSCLC): > 100 µM | TGI (KM12 colon): > 100 µM | TGI (CCRF-CEM leukemia): > 100 µM | TGI (SW-620 colon): > 100 µM | TGI (CAKI-1 renal): > 100 µM | TGI (DMS 273 small cell lung): > 100 µM | TGI (RPMI-8226 leukemia): > 100 µM | TGI (SK-MEL-2 melanoma): > 100 µM | TGI (OVCAR-8 ovarian): > 100 µM | TGI (NCI-H23 lung): > 100 µM | TGI (OVCAR-4 ovarian): > 100 µM | TGI (SF-295 CNS): > 100 µM | TGI (K-562 leukemia): > 100 µM | TGI (786-0 renal): > 100 µM | TGI (ACHN renal): > 100 µM | TGI (A549 NSCLC): > 100 µM | TGI (LXFL 529 NSCLC): > 100 µM | TGI (HOP-18 NSCLC): > 100 µM | TGI (NCI-H460 lung): > 100 µM | TGI (DMS 114 small cell lung): > 100 µM | TGI (UO-31 renal): > 100 µM | TGI (COLO 205 colon): > 100 µM | TGI (HOP-62 NSCLC): > 100 µM | TGI (HCT-116 colon): > 100 µM | TGI (XF 498 CNS): > 100 µM | TGI (HL-60(TB) leukemia): > 100 µM | TGI (OVCAR-3 ovarian): 39 µM | TGI (SR leukemia): > 100 µM | TGI (KM20L2 colon): > 100 µM | TGI (MALME-3M melanoma): > 100 µM | TGI (SF-539 CNS): 91.1 µM | TGI (SNB-75 CNS): > 100 µM | TGI (HCT-15 colon): > 100 µM | TGI (UACC-257 melanoma): > 100 µM | TGI (MOLT-4 leukemia): > 100 µM | TGI (RXF 393 renal): 75.5 µM | TGI (SN12C renal): > 100 µM | TGI (M14 melanoma): > 100 µM | TGI (NCI-H226 lung): > 100 µM | TGI (HT29 colon): > 100 µM | TGI (DLD-1 colon): 82.5 µM
